Numbered stars: 1 amine (or outer) side, 2 acyl side, 3 side chain; on linkers, the order of the positions; unused ones are H or OH. Bridge positions count the residues as written; N and C are the ends. Square brackets hold non-standard residues; d marks the D form. Peptide text beside a SMILES is read from it. * marks the point of attachment. C20 diacid = O=C(O)CCCCCCCCCCCCCCCCCCC(=O)*; γGlu = O=C(O)[C@H](CCC(=O)[*:2])N[*:1]; NMeI = CC[C@H](C)[C@H](NC)C(=O)O; Sar = CNCC(=O)O
What was measured:
[1] = molecular target: T1, human calcitonin receptor (hCTR2) (Homo sapiens, UniProt P30988); assay: hCTR2 assay: induction of cAMP (AlphaScreen cAMP Assay kit) in COS7 cells expressing hCTR2; format: cell-based
T1 construct: expressed in transfected cells
T1 sequence (P30988 25-474): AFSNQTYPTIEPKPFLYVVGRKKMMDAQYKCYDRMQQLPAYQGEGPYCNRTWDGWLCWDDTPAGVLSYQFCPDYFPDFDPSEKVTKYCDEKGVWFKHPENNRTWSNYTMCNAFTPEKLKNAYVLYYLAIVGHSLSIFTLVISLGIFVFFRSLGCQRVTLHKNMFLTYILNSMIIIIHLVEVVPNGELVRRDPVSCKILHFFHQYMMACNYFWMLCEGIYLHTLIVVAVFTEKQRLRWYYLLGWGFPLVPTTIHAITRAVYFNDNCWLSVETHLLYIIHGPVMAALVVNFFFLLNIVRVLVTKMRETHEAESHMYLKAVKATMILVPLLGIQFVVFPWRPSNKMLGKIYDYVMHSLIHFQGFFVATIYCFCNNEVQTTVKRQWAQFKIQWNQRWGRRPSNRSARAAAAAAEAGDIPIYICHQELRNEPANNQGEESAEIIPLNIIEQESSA
Summary of the method: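 cAMP read-out by AlphaScreen after cell lysis; EC50 and % efficacy vs pramlintide from 4-parameter logistic fitting. Agonist stimulation: hCTR2-COS7 stable cells, 15 min, 37° C, 100 µM IBMX, 0.1% casein, Tyrode/HEPES pH 7.4.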

[2] = molecular target: T2, human amylin receptor 3 (hAMYR3) consisting of hCTR2 co-expressed with human Receptor Activity Modifying Protein 3 (hRAMP3) (Homo sapiens, UniProt O60896+P30988); assay: hAMYR3 assay: induction of cAMP (AlphaScreen cAMP Assay kit) in COS7 cells expressing hAMYR3; format: cell-based; conditions: cAMP induction in COS7 cells expressing hAMYR3; average of a minimum of 3 determinations; read-out: hAMY R3 EC50
T2 construct: expressed in transfected cells
T2 sequence (P30988 25-474): T1 sequence (P30988 25-474)
T2 sequence (O60896 24-148 partner): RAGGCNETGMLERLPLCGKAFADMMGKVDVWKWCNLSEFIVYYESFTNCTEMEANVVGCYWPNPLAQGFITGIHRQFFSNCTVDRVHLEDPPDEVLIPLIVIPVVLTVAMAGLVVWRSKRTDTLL
Summary of the method: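 cAMP accumulation read by AlphaScreen in lysates of RAMP-naive COS7 cells stably transfected with hCTR2 plus hRAMP3. Cells exposed to peptide dilutions for 15 min, 37° C, with 100 µM IBMX; 4PL fitting gave EC50 and efficacy relative to pramlintide.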

[3] = Solubility assessment (turbidity absorbance at 325 nm); format: physicochemical; conditions: stock 2 mg/ml diluted 1:1, ambient temperature (typically 25°C), n=1; for Solubility, Acetate buffer pH 4: 100 mM acetate buffer pH 4.0; for Solubility, Acetate buffer pH 5: 100 mM acetate buffer pH 5.0; for Solubility, Histidine buffer pH 6: 100 mM histidine buffer pH 6.0; for Solubility, Histidine buffer pH 7: 100 mM histidine buffer pH 7.0; for Solubility, Phosphate buffer pH 6: 100 mM phosphate buffer pH 6.0; for Solubility, Phosphate buffer pH 7: 100 mM phosphate buffer pH 7.0; for Solubility, Phosphate buffer pH 7.5: 100 mM phosphate buffer pH7.5
Summary of the method: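 Turbidity read as absorbance at 325 nm (also 280 nm), single samples at ambient temperature (typically 25°C); ≤ 0.02 units counts as ≥ 1 mg/ml soluble. Samples made by 1:1 dilution of a 2 mg/ml acidic stock into 100 mM acetate, histidine or phosphate buffers, pH 4.0–7.5.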

[4] = Assessment of physical stability: fibril formation detected with Thioflavin T (ThT), lag-time; format: physicochemical; conditions: 1 mg/ml peptide, 40 µM ThT, FND = Fibrillation not detected; for Fibrillation lag time (hours) pH 4.0 (Ac): 50 mM acetate buffer pH 4.0, 96 hours at 40°C; for Fibrillation lag time (hours) pH 7.0 (Ph): 50 mM phosphate buffer pH 7.0, 96 hours at 40°C
Description: Solutions containing (i) 1 mg/ml of test peptide, 40 µM ThT and 50 mM phosphate (Ph) buffer (pH 7.0), (ii) 1 mg/ml of test peptide, 40 µM ThT and 50 mM histidine (His) buffer (pH 7.0), and (iii) 1 mg/ml of test peptide, 40 µM ThT and 50 mM acetate (Ac) buffer (pH 4.0), were loaded in a 96-well black fluorescence plate (clear bottom) in triplicate. Data were collected at fixed intervals of 10 min, each preceded by 300 s of automixing (agitation), over a period of 96 hours at 40° C. Physical stability, expressed as lag-time of fibril formation (in hours), was defined as the intersection between two linear regressions representing the initial stable phase and the growth phase.

Row | SMILES | EC50 [1] | EC50 [2] | Solubility, Acetate buffer pH 4 [3] | Solubility, Acetate buffer pH 5 [3] | Solubility, Histidine buffer pH 6 [3] | Solubility, Histidine buffer pH 7 [3] | Solubility, Phosphate buffer pH 6 [3] | Solubility, Phosphate buffer pH 7 [3] | Solubility, Phosphate buffer pH 7.5 [3] | Fibrillation lag time (hours) pH 4.0 (Ac) [4] | Fibrillation lag time (hours) pH 7.0 (Ph) [4] | Fibrillation lag time (hours) pH 7.0 (His) ([4]; 50 mM histidine buffer pH 7.0, 96 hours at 40°C)
1 | CC[C@H](C)[C@@H](C(=O)N[C@@H](CC(C)C)C(=O)N[C@@H](CO)C(=O)N[C@@H](CO)C(=O)N[C@H](C(=O)N[C@@H](CC(N)=O)C(=O)N[C@H](C(=O)NCC(=O)N[C@@H](CO)C(=O)N[C@@H](CC(N)=O)C(=O)N[C@H](C(=O)N1CCC[C@H]1C(N)=O)[C@@H](C)O)C(C)C)[C@@H](C)O)N(C)C(=O)CN(C)C(=O)[C@H](Cc1ccccc1)NC(=O)[C@H](CC(N)=O)NC(=O)[C@H](CC(N)=O)NC(=O)[C@H](CO)NC(=O)[C@H](CO)NC(=O)[C@H](Cc1c[nH]cn1)NC(=O)[C@H](Cc1c[nH]cn1)NC(=O)[C@H](CC(C)C)NC(=O)[C@H](Cc1ccccc1)NC(=O)[C@H](CCC(=O)O)NC(=O)[C@H](C)NC(=O)[C@H](CC(C)C)NC(=O)[C@H](CCCNC(=N)N)NC(=O)[C@H](CCC(N)=O)NC(=O)[C@@H](NC(=O)[C@H](C)NC(=O)[C@@H]1CSSC[C@H](NC(=O)[C@H](CCCNC(=N)N)NC(=O)CC[C@H](NC(=O)CCCCCCCCCCCCCCCCCCC(=O)O)C(=O)O)C(=O)N[C@@H](CC(N)=O)C(=O)N[C@@H]([C@@H](C)O)C(=O)N[C@@H](C)C(=O)N[C@@H]([C@@H](C)O)C(=O)N1)[C@@H](C)O [Compound 2, [19CD]-isoGlu-RC()NTATC()ATQRLAEFLHHSSNNF-Gly(Me)-Ile(Me)-LSSTNVGSNTP-NH2] ({C20 diacid-γGlu}-RCNTATCATQRLAEFLHHSSNNF[Sar][NMeI]LSSTNVGSNTP-NH2; disulfide 2-7) | 160 pM | 260 pM | SS (SS indicates solubility ≥ 1mg/ml) | SS (SS indicates solubility ≥ 1mg/ml) | SS (SS indicates solubility ≥ 1mg/ml) | SS (SS indicates solubility ≥ 1mg/ml) | SS (SS indicates solubility ≥ 1mg/ml) | SS (SS indicates solubility ≥ 1mg/ml) | II (II indicates solubility ≤ 1 mg/ml) | FND^&& | FND^&& | 
2 | CC[C@H](C)[C@@H](C(=O)N[C@@H](CC(C)C)C(=O)N[C@@H](CO)C(=O)N[C@@H](CO)C(=O)N[C@H](C(=O)N[C@@H](CC(N)=O)C(=O)N[C@H](C(=O)NCC(=O)N[C@@H](CO)C(=O)N[C@@H](Cc1c[nH]cn1)C(=O)N[C@H](C(=O)N[C@@H](Cc1ccc(O)cc1)C(N)=O)[C@@H](C)O)C(C)C)[C@@H](C)O)N(C)C(=O)[C@H](C)NC(=O)CN(C)C(=O)[C@H](Cc1ccccc1)NC(=O)[C@H](CC(N)=O)NC(=O)[C@H](CC(N)=O)NC(=O)[C@H](CO)NC(=O)[C@H](CO)NC(=O)[C@H](Cc1c[nH]cn1)NC(=O)[C@H](Cc1c[nH]cn1)NC(=O)[C@H](CC(C)C)NC(=O)[C@H](Cc1ccccc1)NC(=O)[C@H](CCC(=O)O)NC(=O)[C@H](C)NC(=O)[C@H](CC(C)C)NC(=O)[C@H](CCCNC(=N)N)NC(=O)[C@H](CCC(N)=O)NC(=O)[C@@H](NC(=O)[C@H](C)NC(=O)[C@@H]1CSSC[C@H](NC(=O)[C@H](CCCCN)NC(=O)CC[C@H](NC(=O)CCCCCCCCCCCCCCCCCCC(=O)O)C(=O)O)C(=O)N[C@@H](CC(N)=O)C(=O)N[C@@H]([C@@H](C)O)C(=O)N[C@@H](C)C(=O)N[C@@H]([C@@H](C)O)C(=O)N1)[C@@H](C)O [Compound 3, [19CD]-isoGlu-KC()NTATC()ATQRLAEFLHHSSNNF-Gly(Me)-A-Ile(Me)-LSSTNVGSHTY-NH2] ({C20 diacid-γGlu}-KCNTATCATQRLAEFLHHSSNNF[Sar]A[NMeI]LSSTNVGSHTY-NH2; disulfide 2-7) | 1300 pM |  | SS (SS indicates solubility ≥ 1mg/ml) | SS (SS indicates solubility ≥ 1mg/ml) | SS (SS indicates solubility ≥ 1mg/ml) | II** (II indicates solubility ≤ 1 mg/ml) | SS (SS indicates solubility ≥ 1mg/ml) | II (II indicates solubility ≤ 1 mg/ml) | II (II indicates solubility ≤ 1 mg/ml) | FND | FND | FND
3 | CC[C@H](C)[C@H](NC(=O)[C@@H]1CCCN1C(=O)CNC(=O)[C@H](Cc1ccccc1)NC(=O)[C@H](CC(N)=O)NC(=O)[C@H](CC(N)=O)NC(=O)[C@H](CO)NC(=O)[C@H](CO)NC(=O)[C@H](Cc1c[nH]cn1)NC(=O)[C@@H](NC(=O)[C@H](CC(C)C)NC(=O)[C@H](Cc1ccccc1)NC(=O)[C@H](CC(N)=O)NC(=O)[C@H](C)NC(=O)[C@H](CC(C)C)NC(=O)[C@H](CCCNC(=N)N)NC(=O)[C@H](CCC(N)=O)NC(=O)[C@@H](NC(=O)[C@H](C)NC(=O)[C@@H]1CSSC[C@H](NC(=O)[C@@H](N)CCCCN)C(=O)N[C@@H](CC(N)=O)C(=O)N[C@@H]([C@@H](C)O)C(=O)N[C@@H](C)C(=O)N[C@@H]([C@@H](C)O)C(=O)N1)[C@@H](C)O)C(C)C)C(=O)N[C@@H](CC(C)C)C(=O)N1CCC[C@H]1C(=O)N1CCC[C@H]1C(=O)N[C@H](C(=O)N[C@@H](CC(N)=O)C(=O)N[C@H](C(=O)NCC(=O)N[C@@H](CO)C(=O)N[C@@H](CC(N)=O)C(=O)N[C@H](C(=O)N[C@@H](Cc1ccc(O)cc1)C(N)=O)[C@@H](C)O)C(C)C)[C@@H](C)O [pramlin tide] |  |  |  |  |  |  |  |  |  | 48 hours | 2 hours | 
